Data taken from patent US9322066B2, “Predictors for cancer treatment” (priority 2011, dated 2016).

Test system: relapsed or refractory, rituximab-naive or -sensitive follicular B-cell NHL
Test: Progression-free survival (PFS), Vc-R vs rituximab study, by biomarker
Type: in vivo, human
Description: Non-Hodgkin lymphoma (NHL) encompasses several unique malignant lymphoid disease entities that vary in clinical behavior, morphologic appearance, immunologic, and molecular phenotype. […] A randomized, open-label, active-controlled, multicenter, multinational, prospective study to compare the efficacy and safety of the combination of bortezomib and rituximab (Vc-R) to single-agent rituximab in subjects who have relapsed or refractory, rituximab-naive or -sensitive follicular B-cell NHL was performed.
Subjects were centrally randomized to Treatment Groups A (Vc-R) or B (rituximab) in a 1:1 ratio taking into account the following stratification factors: • Follicular Lymphoma International Prognostic Index (FLIPI) score (low [0 or 1 factor], intermediate [2 factors], high [≧3 factors]); • Prior rituximab therapy (yes, no); • Time since last dose of anti-lymphoma therapy (≦1 year, >1 year); • Region (United States/Canada, European Union, Rest of World).
The following clinical endpoints were included in the analysis within each treatment group and an overall comparison was made with the biomarker-related endpoints: Progression-free survival, defined as the interval between the date of randomization and the date of progressive disease (PD) or death, whichever is first reported in the ITT population; overall survival; overall response rate (complete response [CR]+CR unconfirmed [CRu]+partial response [PR]); overall CR rate (CR+CRu); duration of response; time to next anti-lymphoma therapy; and treatment free interval.
For single-marker association analyses and pair-wise comparisons, a log rank test and Cox proportional hazard model was utilized for assessments of PFS, TTP, and OS between the treatment groups. Kaplan-Meier curves were utilized to estimate the distribution differences between groups in the time-to-event analyses. Comparison of the response rates between the treatment groups was conducted using the Fishers exact test. Single-marker association analyses were stratified by the covariates.
For pair-wise comparison analysis, biomarker pairs were formed by combinations of two markers. A log rank test was utilized for assessments of PFS, TTP, and OS between the treatment groups in the subpopulation defined by biomarker pairs. Kaplan-Meier curves were utilized to estimate the distribution differences between groups in the time-to-event analyses. Comparison of the response rates between the treatment groups was conducted using the Fishers exact test. Methods of Analysis for the multiple biomarker comparison models can be found in section 4.6.
The stratified log rank test and Cox proportional hazard model was utilized for assessments of PFS between the treatment groups. The Kaplan-Meier method was to be used to estimate the distribution of overall PFS for each treatment group in the biomarker population, and overall; stratified by expression level, SNP, or mutation (or covariate groups as noted above). The hazard ratio and 95% confidence interval was based on a stratified Cox's proportion hazard model with treatment as the explanatory variable. Analyses were done for the population overall and by treatment group, and each of these analyses were also stratified by the following factors if sufficient sample size existed: […]

rituximab
Median PFS (Vc-R vs R) (PSMB1/P11A C/G + P65 % POSITIVE CYTOPLASMIC SIGNAL >90%, Excluded): 348 days | Median PFS (Vc-R vs R) (PSMB1/P11A C/G + P65 % POSITIVE CYTOPLASMIC SIGNAL >90%, Selected): 278 days | Median PFS (Vc-R vs R) (PSMB1/P11A C/G + P65 % POSITIVE CYTOPLASMIC SIGNAL >90%, Total): 338 days | Median PFS (Vc − R vs R) (PSMB1/P11A C/G + PSMB9/R60H G/G, Excluded): 346 days | Median PFS (Vc − R vs R) (PSMB1/P11A C/G + PSMB9/R60H G/G, Selected): 288 days | Median PFS (Vc − R vs R) (PSMB1/P11A C/G + PSMB9/R60H G/G, Total): 345 days | Median PFS (Vc-R vs R) (PSMB1/P11A G/G + PSMB5/R24C C/T, Excluded): 345 days | Median PFS (Vc-R vs R) (PSMB1/P11A G/G + PSMB5/R24C C/T, Selected): 237.5 days | Median PFS (Vc-R vs R) (PSMB1/P11A G/G + PSMB5/R24C C/T, Total): 345 days | Median PFS (Vc − R vs R) (PSMB5/R24AC C/C + 20S % NUCLEAR STAINING 30-90, Excluded): 346 days | Median PFS (Vc − R vs R) (PSMB5/R24C C/C + 20S % NUCLEAR STAINING 30-90, Selected): 281 days | Median PFS (Vc − R vs R) (PSMB5/R24C C/C + 20S % NUCLEAR STAINING 30-90, Total): 345 days | PFS median (PSMB5/R24C C/T): 9.3 mo | PFS median (PSMB5/R24C C/T & CD68 POSITIVE FOLLICULAR: 0-50): 7.2 mo | PFS median (PSMB5/R24C C/T & P65 INTENSITY CYTOPLASMIC SIGNAL <=1+): 10.4 mo | Median PFS (Vc-R vs R) (PSMB5/R24C C/T + CD68 POSITIVE FOLLICULAR 0-50, Total): 345 days | Median PFS (Vc-R vs R) (PSMB9/R60H A/G + 20S % POSITIVE CYTOPLASMIC SIGNAL 95-100, Excluded): 347 days | Median PFS (Vc-R vs R) (PSMB9/R60H A/G + 20S % POSITIVE CYTOPLASMIC SIGNAL 95-100, Selected): 273 days | Median PFS (Vc-R vs R) (PSMB9/R60H A/G + 20S % POSITIVE CYTOPLASMIC SIGNAL 95-100, Total): 345 days | Median PFS (Vc − R vs R) (PSMB9/R60H A/G + CD68 OVERALL POSITIVE 0-50, Excluded): 349 days | Median PFS (Vc − R vs R) (PSMB9/R60H A/G + CD68 OVERALL POSITIVE 0-50, Selected): 273 days | Median PFS (Vc − R vs R) (PSMB9/R60H A/G + CD68 OVERALL POSITIVE 0-50, Total): 345 days | Median PFS (Vc-R vs R) (PSMB9/R60H A/G + CD68 POSITIVE FOLLICULAR 0-50, Excluded): 349 days | Median PFS (Vc-R vs R) (PSMB9/R60H A/G + CD68 POSITIVE FOLLICULAR 0-50, Selected): 273 days | Median PFS (Vc-R vs R) (PSMB9/R60H A/G + CD68 POSITIVE FOLLICULAR 0-50, Total): 345 days | PFS median (PSMB9/R60H G/G & P65 % NUCLEAR STAINING: >0): 9.5 mo | Median PFS (Vc − R vs R) (PSMB9/R60H G/G + 20S % NUCLEAR STAINING 30-90, Excluded): 345 days | Median PFS (Vc-R vs R) (PSMB9/R60H G/G + 20S % NUCLEAR STAINING 30-90, Selected): 280 days | Median PFS (Vc − R vs R) (PSMB9/R60H G/G + 20S % NUCLEAR STAINING 30-90, Total): 345 days | PFS median (Prior RX: 1 & CD68 POSITIVE FOLLICULAR: 0-50): 9.3 mo | PFS median (Prior Ritutux NO & CD68 POSITIVE FOLLICULAR: 0-50): 9.2 mo | PFS median (Race Group OTHER & 20S % NUCLEAR STAINING: >20): 3.8 mo | Median PFS (Vc-R vs R) (SEX MALE + 20S % NUCLEAR STAINING 30-90, Excluded): 357 days | Median PFS (Vc-R vs R) (SEX MALE + 20S % NUCLEAR STAINING 30-90, Selected): 235 days | Median PFS (Vc-R vs R) (SEX MALE + 20S % NUCLEAR STAINING 30-90, Total): 345 days | Median PFS (Vc − R vs R) (SEX MALE + P65 % POSITIVE CYTOPLASMIC SIGNAL >90%, Excluded): 375 days | Median PFS (Vc − R vs R) (SEX MALE + P65 % POSITIVE CYTOPLASMIC SIGNAL >90%, Selected): 271 days | Median PFS (Vc − R vs R) (SEX MALE + P65 % POSITIVE CYTOPLASMIC SIGNAL >90%, Total): 345 days | Median PFS (Vc-R vs R) (Selected: 20S % NUCLEAR STAINING 30-90 and P65 % POSITIVE CYTOPLASMIC SIGNAL >90%): 277 days | Median PFS (Vc-R vs R) (Selected: AGEGRP <=65 and CD68 OVERALL POSITIVE 0-50): 279 days | Median PFS (Vc-R vs R) (Selected: AGEGRP <=65 and P65 % POSITIVE CYTOPLASMIC SIGNAL >90%): 277 days | Median PFS (Vc-R vs R) (Selected: CD68 OVERALL POSITIVE 0-50 and P65 % POSITIVE C[…] >90%): 279 days | Median PFS (Vc-R vs R) (Selected: FLIPI High and P65 % POSITIVE CYTOPLASMIC SIGNAL >90%): 212 days | Median PFS (Vc-R vs R) (Selected: PRITUX NO and P65 % NUCLEAR STAINING 0): 287 days | Median PFS (Vc-R vs R) (Selected: PSMB1/P11A C/G and ANNARBOR >=III): 275 days | Median PFS (Vc-R vs R) (Selected: PSMB1/P11A C/G and P65 % NUCLEAR STAINING 0): 279 days | PFS median (Sex MALE & 20S % NUCLEAR STAINING: >20): 7.7 mo | Median PFS (Vc-R vs R) (TLAST >1 year + CD68 POSITIVE FOLLICULAR 0-50, Excluded): 288 days | Median PFS (Vc-R vs R) (TLAST >1 year + CD68 POSITIVE FOLLICULAR 0-50, Selected): 357 days | Median PFS (Vc-R vs R) (TLAST >1 year + CD68 POSITIVE FOLLICULAR 0-50, Total): 346 days | Median PFS (Vc − R vs R) (TLAST >1 year + P65 % POSITIVE CYTOPLASMIC SIGNAL >90%, Excluded): 280 days | Median PFS (Vc − R vs R) (TLAST >1 year + P65 % POSITIVE CYTOPLASMIC SIGNAL >90%, Selected): 357 days | Median PFS (Vc − R vs R) (TLAST >1 year + P65 % POSITIVE CYTOPLASMIC SIGNAL >90%, Total): 345 days | PFS median (Total biomarker evaluable, N = 356): 11.3 months | Median PFS (Vc-R vs R) (Total: 20S % NUCLEAR STAINING 30-90 and P65 % POSITIVE CYTOPLASMIC SIGNAL >90%): 345 days | Median PFS (Vc-R vs R) (Total: AGEGRP <=65 and CD68 OVERALL POSITIVE 0-50): 345 days | Median PFS (Vc-R vs R) (Total: AGEGRP <=65 and P65 % POSITIVE CYTOPLASMIC SIGNAL >90%): 345 days | Median PFS (Vc-R vs R) (Total: CD68 OVERALL POSITIVE 0-50 and P65 % POSITIVE C[…] >90%): 345 days | Median PFS (Vc-R vs R) (Total: FLIPI High and P65 % POSITIVE CYTOPLASMIC SIGNAL >90%): 345 days | Median PFS (Vc-R vs R) (Total: PRITUX NO and P65 % NUCLEAR STAINING 0): 345 days | Median PFS (Vc-R vs R) (Total: PSMB1/P11A C/G and ANNARBOR >=III): 345 days | Median PFS (Vc-R vs R) (Total: PSMB1/P11A C/G and P65 % NUCLEAR STAINING 0): 338 days | PFS (confirmation cohort 1 (excludes China; n=106), biomarker positive): 9.5 months | median PFS (confirmation cohort 2 (includes China subjects and subjects with missing data), biomarker positive): 9.5 months | PFS (discovery cohort, CD68 Low and PSMB P11A): 8.5 months | median PFS (subjects with PSMB1 P11A (C/G)): 9.5 months | median PFS (subjects with higher CD68 expression): 16.2 months | median PFS (subjects with low CD68 (0-50)): 9.3 months
